Read-outs that look alike come from different tables or passages of the source.
Legend:
[1] = biological target: T1, HIV-1 RNase H (p66/p51 HIV-1 RT) (Human immunodeficiency virus type 1 group M subtype B, UniProt P04585); assay: High throughput RNase H assay on sequence-independent RNA/DNA hybrid; format: biochemical; details: read-out: In vitro IC50
T1 construct: RT is a p66/p51 heterodimer comprised of asymmetrically-organized subunits processed from the 165 kDa gag/pol polyprotein precursor; (His)6; made in house; host or cells: Escherichia coli
Method: IC50 values were determined as previously reported (Budihas, S. R., et al., Nucleic Acids Res., 33(4):1249-56 (2005)), using an 18-nucleotide 3′-flourescein-labeled RNA annealed to a complementary 18-nucleotide 5′-dabsyl-labeled DNA. […] The reaction was initiated by adding 1 μl of 100 mM MgCl2 to 9 μl of mixture containing 4 ng enzyme, 200 nM substrate, 20 μM α-hydroxytropolones in 50 mM Tris, pH 8.0, 80 mM KCl, 2 mM DTT, and 10% DMSO at 37° C., and quenched with 10 μl of a gel-loading buffer after 10 minutes. Hydrolysis products were fractionated by denaturing polyacrylamide gel electrophoresis and visualized by fluorescent imaging (Typhoon Trio+, GE Healthcare, Piscataway, N.J.). […]

[2] = tested on: HIV-1 virus strain RF in CEM-SS cells; assay: HIV-1 cytopathicity assay; format: cell-based; details: for EC50: read-out: Virus Replication EC50; for Virus Replication EC50, protective effect class: tested up to 50 μM
Method: This assay was conducted as previously reported (Weislow, O, S., et al., J. Natl. Cancer Inst., 81(8):577-86 (1989)). Samples were dissolved in DMSO at 10 mM and diluted to a final high concentration of 50 μM in the 96-well assay plate, with 2-fold dilutions made to a low concentration of about 0.78 μM. All samples were tested in duplicate. The HIV-1 virus strain RF was used to infect CEM-SS cells. Compound cytotoxicity was measured in the same assay plate using uninfected cells. Regression analysis was used to estimate the effective concentration (EC50) as well as the cytotoxic concentration (CC50).

[3] = Compound cytotoxicity in uninfected cells (same assay plate); format: cell-based; details: human, uninfected CEM-SS cells; read-out: Virus Replication CC50
Method: (§1) All samples were tested in duplicate. The HIV-1 virus strain RF was used to infect CEM-SS cells. Compound cytotoxicity was measured in the same assay plate using uninfected cells. Regression analysis was used to estimate the effective concentration (EC50) as well as the cytotoxic concentration (CC50).

uninfected CEM-SS cells = assay: as above; format: cell-based; details: for CC50: uninfected CEM-SS cells, read-out: Virus Replication CC50; for cytotoxicity (in words): up to a concentration of 50 μM
Method: as §1

HIV-1 RT RNase H = biological target: T2, HIV-1 RT RNase H (Human immunodeficiency virus type 1 group M subtype B, UniProt P04585); assay: Cleavage of the HIV-1 polypurine tract (PPT) primer, PPT/U3 junction; format: biochemical; details: 20 μM inhibitor
T2 construct: RT is a p66/p51 heterodimer comprised of asymmetrically-organized subunits processed from the 165 kDa gag/pol polyprotein precursor; (His)6; made in house; host or cells: Escherichia coli
Method: FIG. 2A depicts a schematic model of RNA/DNA substrate, indicating the RNase H cleavage site at the PPT/U3 junction (< >). The PPT is indicated by the shaded box. FIG. 2B depicts the quantification of PPT cleavage data. All inhibitors were evaluated at 20 μM.
IC50 values were determined as previously reported (Budihas, S. R., et al., Nucleic Acids Res., 33(4):1249-56 (2005)), using an 18-nucleotide 3′-flourescein-labeled RNA annealed to a complementary 18-nucleotide 5′-dabsyl-labeled DNA. […] The reaction was initiated by adding 1 μl of 100 mM MgCl2 to 9 μl of mixture containing 4 ng enzyme, 200 nM substrate, 20 μM α-hydroxytropolones in 50 mM Tris, pH 8.0, 80 mM KCl, 2 mM DTT, and 10% DMSO at 37° C., and quenched with 10 μl of a gel-loading buffer after 10 minutes. Hydrolysis products were fractionated by denaturing polyacrylamide gel electrophoresis and visualized by fluorescent imaging (Typhoon Trio+, GE Healthcare, Piscataway, N.J.).
Since the high-throughput RNase H assay examines non-specific, “polymerase-independent” RNase H activity defined by the spatial separation of the DNA polymerase and RNase H active site of HIV-1 RT (Gopalakrishnan, V., et al., Proc. Natl. Acad. Sci. USA, 89(22):10763-7 (1992)), an examination of whether α-hydroxytropolones altered cleavage specificity on a more biologically-relevant substrate, namely the polypurine tract (PPT) primer, which must be processed from the RNA/DNA replication intermediate to initiate (+) strand DNA synthesis.

[4] = HIV-1 RNase H enzymatic activity, sequence-independent RNA/DNA hybrid
[5] = Human immunodeficiency virus 1, CEM-SS, HIV-1 RF

| EC50 ([2]; Human immunodeficiency virus 1, HIV-1 RF) | Compound | IC50 [1, 4] | protection against the cytopathic effect of the virus (in words) ([2]; HIV-1 RF) | EC50 [2, 5] | CC50 [3] | CC50 (uninfected CEM-SS cells) | cytotoxicity (in words) (uninfected CEM-SS cells) | inhibition of PPT/U3 cleavage (in words) (HIV-1 RT RNase H) | IC50 [1] | EC50 ([2]; HIV-1 RF) | Virus Replication EC50, protective effect class ([2]; HIV-1 RF) | inhibition at 20 µM (HIV-1 RT RNase H; read-out: effectiveness in inhibiting PPT/U3 cleavage) |
| --- | --- | --- | --- | --- | --- | --- | --- | --- | --- | --- | --- | --- |
| – | Cc1cc(O)c(=O)c(O)c2c1CC(C(C)(O)CSCc1ccccc1)CC2 (mixture of isomers) [Compound 8, 2-(2-Benzylthio-1-hydroxy-1-methyl-ethyl)-5,7-dihydroxy-9-methyl-1,2,3,4-tetrahydrobenzocyclohepten-6-one] | 1.3 µM | showed protection | ~4.2 µM | 17.4 µM | – | – | – | – | – | – | – |
| – | Cc1cc(O)c(=O)c(O)c2c1CC(C(C)(O)CO)CC2 (mixture of isomers) [Compound 12, 2-(1,2-Dihydroxy-1-methyl-ethyl)-5,7-dihydroxy-9-methyl-1,2,3,4-tetrahydrobenzocyclohepten-6-one] | 1.9 µM | no protection | – | – | > 50 µM | not cytotoxic | – | – | – | – | – |
| 42.1 µM | Cc1cc(O)c(=O)c(O)c2c1CC(C(C)(O)Cn1ccnc1)CC2 (stereo not drawn) [Compound 2, 5,7-Dihydroxy-2-(1-hydroxy-2-imadazol-1-yl-1-methyl-ethyl)-9-methyl-1,2,3,4-tetrahydro benzocyclohepten-6-one] | – | showed protection | – | > 50 µM | – | – | less active | – | – | – | – |
| – | Cc1cc(O)c(=O)c(O)c2c1CC(C(C)(O)CN1CCCCC1)CC2 (mixture of isomers) [Compound 1, 5,7-Dihydroxy-2-(1-hydroxy-1-methyl-2-piperidin-1-yl-ethyl)-9-methyl-1,2,3,4-tetrahydro benzocyclohepten-6-one] | 0.93 µM | showed protection | 10.2 µM | > 50 µM | – | – | – | – | – | – | – |
| – | Cc1cc(O)c(=O)c(O)c2c1CC(C(C)NCc1ccccc1)CC2 (mixture of isomers) [Compound 14, 2-(1-Benzylamino-ethyl)-5,7-Dihydroxy-9-methyl-1,2,3,4-tetrahydrobenzocyclohepten-6-one] | 1.1 µM | showed protection | 10.6 µM | 16.7 µM | – | – | less active | – | – | – | – |
| – | Cc1cc(O)c(=O)c(O)c2c1CC(C(C)O)CC2 (mixture of isomers) [Compound 13, 5,7-Dihydroxy-2-(1-hydroxy-ethyl)-9-methyl-1,2,3,4-tetrahydrobenzocyclohepten-6-one] | 0.75 µM | showed protection | 6.9 µM | 26.1 µM | – | – | – | – | – | – | – |
| – | CC(C)c1ccc(O)c(=O)c(O)c1 [β-Thujaplicinol, reference compound] | – | no protection | – | – | 2.3 µM | – | – | 0.21 µM | 2.3 µM | – | – |
| – | Cc1cc(O)c(=O)c(O)c2c1CC(C(C)(O)CNCc1ccccc1F)CC2 (mixture of isomers) [Compound 4, 2-[2-(2-Fluoro-benzylamino)-1-hydroxy-1-methyl-ethyl]-5,7-dihydroxy-9-methyl-1,2,3,4-tetrahydrobenzocyclohepten-6-one] | 1.4 µM | no protection | – | > 50 µM | – | not cytotoxic | less active | – | – | – | – |
| – | CCSCC(C)(O)C1CCc2c(c(C)cc(O)c(=O)c2O)C1 (mixture of isomers) [Compound 6, 2-(2-Ethylthio-1-hydroxy-1-methyl-ethyl)-5,7-dihydroxy-9-methyl-1,2,3,4-tetrahydrobenzocyclohepten-6-one] | 0.41 µM | slight protection | – | 25.8 µM | – | – | – | – | – | <50% (<50%=protective effect less than 50% of control, i.e. weak activity) | – |
| – | CCS(=O)(=O)CC(C)(O)C1CCc2c(c(C)cc(O)c(=O)c2O)C1 (mixture of isomers) [Compound 9, 2-(2-Ethanesulfonyl-1-hydroxy-1-methyl-ethyl)-5,7-dihydroxy-9-methyl-1,2,3,4-tetrahydrobenzocyclohepten-6-one] | 0.26 µM | slight protection | – | 10.4 µM | – | – | – | – | – | <50% (<50%=protective effect less than 50% of control, i.e. weak activity) | ~100% |
| – | Cc1cc(O)c(=O)c(O)c2c1CC(C(C)(O)CSc1ccccc1)CC2 (mixture of isomers) [Compound 7, 5,7-Dihydroxy-2-(1-hydroxy-1-methyl-2-phenylthio-ethyl)-9-methyl-1,2,3,4-tetrahydrobenzocyclohepten-6-one] | 0.91 µM | showed protection | 11.5 µM | 17.8 µM | – | – | – | – | – | – | – |
| – | CCN(CC)CC(C)(O)C1CCc2c(c(C)cc(O)c(=O)c2O)C1 (mixture of isomers) [Compound 3, 2-(2-Diethylamino-1-hydroxy-1-methyl-ethyl)-5,7-dihydroxy-9-methyl-1,2,3,4-tetrahydrobenzocyclohepten-6-one] | 0.49 µM | slight protection | – | > 50 µM | – | – | ineffective | – | – | <50% (<50%=protective effect less than 50% of control, i.e. weak activity) | – |
| – | Cc1cc(O)c(=O)c(O)c2c1CC(C(C)(O)CS(=O)(=O)c1ccccc1)CC2 (mixture of isomers) [Compound 11, 2-(2-benzenesulfonyl-1-hydroxy-1-methyl-ethyl)-5,7-dihydroxy-9-methyl-1,2,3,4-tetrahydrobenzocyclohepten-6-one] | 0.59 µM | showed protection | 21.2 µM | > 50 µM | – | – | ineffective | – | – | – | – |
